Key:
[1] = tested on: A549; test: MTT cell viability assay, A549; type: cell-based, human; conditions: mean ± SD, n = 3
Experimental: (§1) All new tetrahydroquinoline derivatives were assessed for cytotoxicity on a broad panel of cancer and normal cell lines, using the MTT assay. The half-inhibitory growth inhibitory concentration (IC50) values of each compound were calculated after 72 h of treatment and presented in Table 1. […] In this assay, the IC50 value of 5-FU and ETP was recorded as a positive control.
(§2) Non-small cell lung cancer cells A549 (CCL-185), breast cancer cells MCF-7 ([…]), hepatocarcinoma cells HepG2 ([…]), normal kidney cells HEK293 (CRL-1573), and osteosarcoma cells U-2 OS (HTB-96) were obtained from the American Type Culture Collection. HCT-116 cell line was kindly provided by prof. Bert Vogelstein (Johns Hopkins University, Howard Hughes Medical Institute, USA). The obtained A549 and MCF-7 cells were cultured in RPMI-1640 medium, HepG2 cells in Minimum Essential Medium Eagle medium, HEK-293 cells in Dulbecco’s Modified Eagle’s medium, and U-2 OS and HCT-116 cells in McCoy’s […] medium. All culture media were supplemented with 10% fetal bovine serum, 2 mM L-glutamine, and antibiotics (penicillin 62.6 µg/ml and streptomycin 40 µg/ml; Sigma-Aldrich). Both cancer and normal cells were cultured at 37 °C under a humidified atmosphere with 5% or 10% CO2 and routinely screened for Mycoplasma contamination. All materials and reagents were obtained from Corning unless stated otherwise.
(§3) The cytotoxic effect of the synthesized compounds was assessed by the MTT (4,5-dimethylthiazol-2-yl-2,5-diphenyltetrazoliumbromide; Sigma-Aldrich) assay. Briefly, the cells were seeded into 96-well transparent flat-bottom plates and allowed to attach overnight. On the next day, the cells were treated with compounds in the range of 0–50 µM for 72 h. Dimethyl sulfoxide (DMSO; Merck) and 5-fluorouracil (5-FU; Sigma-Aldrich) were used as a reference. After exposure to the compounds, 20 μl of the MTT solution at a concentration of 4 mg/ml was added to each well, and the plates were incubated again for 2–3 h at 37 °C. Next, the media in the wells was replaced with 100 μl DMSO to solubilize the formazan crystals. The absorbance was measured at 540 nm using an ASYS UVM340 microplate reader (Biochrom Ltd.). The IC50 value of the compounds was calculated using GraphPad Prism 9 software, based on the curves plotted with survival as a function of dose, averaged from three independent experiments.

[2] = tested on: HCT-116; test: MTT cell viability assay, HCT-116; type: cell-based, human; conditions: mean ± SD, n = 3
Experimental: as §1, §2, §3

[3] = tested on: HEK293; test: MTT cell viability assay, HEK293 normal kidney cells; type: cell-based, human; conditions: for IC50: MTT, 72 h, normal kidney cells, mean ± SD, n = 3
Experimental: as §1, §2, §3

[4] = tested on: Hela; test: MTT cell viability assay, Hela; type: cell-based; conditions: 72 h, mean ± SD, n = 3
Experimental: as §1, §3

[5] = tested on: MCF-7; test: MTT cell viability assay, MCF-7; type: cell-based, human; conditions: mean ± SD, n = 3
Experimental: as §1, §2, §3

[6] = tested on: HepG2; test: MTT cell viability assay, HepG2; type: cell-based; conditions: mean ± SD, n = 3
Experimental: as §1, §2, §3

[7] = tested on: tested cell lines (HCT-116, A549, MCF-7, HepG2, Hela, HEK293); test: MTT assay, broad panel of cancer and normal cell lines; type: cell-based; conditions: range of 0–50 µM, 72 h
Experimental: as §1, §3

| IC50 ([1]; 72 h) [µM] | IC50 ([2]; 72 h) [µM] | IC50 [4] [µM] | IC50 ([5]; 72 h) [µM] | IC50 ([6]; 72 h) [µM] | IC50 ([1]; Homo sapiens, A549, 72 h) [µM] | IC50 ([2]; Homo sapiens, HCT-116, 72 h) [µM] | IC50 ([4]; Homo sapiens, HeLa) [µM] | IC50 ([5]; Homo sapiens, MCF7, 72 h) [µM] | IC50 ([6]; Homo sapiens, HepG2, 72 h) [µM] | SMILES | IC50 [3] [µM] | IC50 ([3]; Homo sapiens, HEK293) [µM] | effect on the tested cell lines [7] | suppressive effect on human normal HEK293 kidney cells ([3]; tested concentrations, compared to A549 and HCT-116) |
| --- | --- | --- | --- | --- | --- | --- | --- | --- | --- | --- | --- | --- | --- | --- |
| – | – | – | – | – | > 50 | > 50 | > 50 | > 50 | > 50 | O=c1[nH]c2c(c(-c3ccccc3)c1Cc1ccc(-c3ccccc3)cc1)CCCC2 [Compound 4c, 4-phenyl-3-[(4-phenylphenyl)methyl]-5,6,7,8-tetrahydro-1H-quinolin-2-one] | – | > 50 | did not have any effect | – |
| – | – | – | – | – | > 50 | > 50 | > 50 | > 50 | > 50 | O=c1[nH]c2c(c(-c3ccccc3)c1Cc1cccc(-c3ccccc3)c1)CCCC2 [Compound 4d, 4-phenyl-3-[(3-phenylphenyl)methyl]-5,6,7,8-tetrahydro-1H-quinolin-2-one] | – | > 50 | did not have any effect | – |
| – | – | – | – | – | > 50 | > 50 | > 50 | > 50 | > 50 | O=c1[nH]c2c(c(-c3ccccc3)c1Cc1ccc(C(F)(F)F)cc1)CCCC2 [Compound 4e, 4-phenyl-3-[[4-(trifluoromethyl)phenyl]methyl]-5,6,7,8-tetrahydro-1H-quinolin-2-one] | – | > 50 | did not have any effect | – |
| – | – | – | – | – | > 50 | > 50 | > 50 | > 50 | > 50 | O=c1[nH]c2c(c(-c3ccccc3)c1Cc1ccc3ccccc3c1)CCCC2 [Compound 4b, 3-(2-naphthylmethyl)-4-phenyl-5,6,7,8-tetrahydro-1H-quinolin-2-one] | – | > 50 | did not have any effect | – |

Continued, compound first:

| SMILES | IC50 ([1]; 72 h) [µM] | IC50 ([2]; 72 h) [µM] | IC50 [4] [µM] | IC50 ([5]; 72 h) [µM] | IC50 ([6]; 72 h) [µM] | IC50 ([1]; Homo sapiens, A549, 72 h) [µM] | IC50 ([2]; Homo sapiens, HCT-116, 72 h) [µM] | IC50 ([4]; Homo sapiens, HeLa) [µM] | IC50 ([5]; Homo sapiens, MCF7, 72 h) [µM] | IC50 ([6]; Homo sapiens, HepG2, 72 h) [µM] | IC50 [3] [µM] | IC50 ([3]; Homo sapiens, HEK293) [µM] | effect on the tested cell lines [7] | suppressive effect on human normal HEK293 kidney cells ([3]; tested concentrations, compared to A549 and HCT-116) |
| --- | --- | --- | --- | --- | --- | --- | --- | --- | --- | --- | --- | --- | --- | --- |
| COc1cc([C@@H]2c3cc4c(cc3[C@@H](O[C@@H]3O[C@@H]5CO[C@@H](C)O[C@H]5[C@H](O)[C@H]3O)[C@H]3COC(=O)[C@H]23)OCO4)cc(OC)c1O [ETP, reference compound] | 0.54 ± 0.21 | 0.39 ± 0.01 | 3.4 ± 0.51 | 0.83 ± 0.15 | 5.01 ± 0.22 | – | – | – | – | – | 1.91 ± 0.97 | – | – | – |
| COc1nc2c(c(-c3ccccc3)c1Cc1cccc3ccccc13)CCCC2 [Compound 6, 2-methoxy-3-(1-naphthylmethyl)-4-phenyl-5,6,7,8-tetrahydroquinoline] | – | 15.6 ± 1.29 | – | – | – | 40.2 ± 0.94 | ~13 | 50 | > 50 | > 50 | – | > 50 | – | almost no suppressive effect |
| O=c1[nH]cc(F)c(=O)[nH]1 [Compound 5-FU, 5-fluorouracil, reference compound] | – | – | – | – | – | – | 5.78 ± 0.38 | 11.1 ± 1.53 | 8.41 ± 0.98 | 13.1 ± 0.32 | – | 16.8 ± 0.34 | – | – |
| Clc1nc2c(c(-c3ccccc3)c1Cc1cccc3ccccc13)CCCC2 [Compound 5, 2-chloro-3-(1-naphthylmethyl)-4-phenyl-5,6,7,8-tetrahydroquinoline] | – | 13.1 ± 0.96 | – | – | – | > 50 | ~13 | > 50 | > 50 | > 50 | – | > 50 | – | – |
